Measurements taken from paper PMC8208785, “Therapeutic efficacy of novel memantine nitrate MN‐08 in animal models of Alzheimer’s disease” (Aging Cell, 2021).

Experiments:
[1] = tested on: ERK and PI3K/Akt/GSK3β pathway; assay: Western blotting of p-ERK, p-Akt, p-GSK3β and Bcl-2 in glutamate-challenged CGNs; type: cell-based, rat; conditions: for upregulation of ERK1/2 phosphorylation induced by glutamate: 2 h pre‐treatment, glutamate 0.5 h
Source text: To further characterize the neuroprotection of MN‐08, the level of the key signaling molecules, such as ERK, Akt, and GSK3β, was examined by Western blotting assay. […] Moreover, pre‐treatment with MN‐08 reversed expression of both p‐Akt and p‐GSK3β with the challenge of glutamate. Akt is an important downstream member of PI3K. To further confirm whether the PI3K/Akt pathway was associated with the neuroprotection of MN‐08 against glutamate‐induced excitotoxicity, specific PI3K inhibitor LY294002 was applied and incubated with MN‐08. […] Taken together, MN‐08 might protect against glutamate‐induce cytotoxicity by reversing the dysregulations of ERK pathway and PI3K/Akt/GSK3β pathway.
Western blotting analysis was performed as previously described with minor modifications (Huang, Li, & Nan, 2017). Proteins were extracted from hippocampal tissue and their concentrations determined by the BCA protein assay kit (Fdbio science, Hangzhou, China). The protein (20 μg) was separated on a 12% SDS-PAGE gel and then transferred to PVDF membranes. The membranes were blocked using 5 % nonfat dry milk for 2 h. The protein blots were incubated with the corresponding primary antibodies against p-Akt (#4060, 1:1000, Cell Signaling Technology), Akt (#4685, 1:1000, Cell Signaling Technology), BACE1 (#5606, 1:1000, Cell Signaling Technology), PS1 (#5643, 1:1000, Cell Signaling Technology), p-GSK3β (#5558, 1:1000, Cell Signaling Technology), GSK3β (#12456, 1:1000, Cell Signaling Technology), Bcl-2 (#3498, 1:1000, Cell Signaling Technology), Bax (#5023, 1:1000, Cell Signaling Technology), Cleaved caspase-3 (#9661, 1:1000, Cell Signaling Technology), Caspase-3 (#9662, 1:1000, Cell Signaling Technology), ADAM10 (#14194, 1:1000, Cell Signaling Technology), APP (#ab241592, 1:1000, Abcam), sAPPα (#ab126723, 1:1000, Abcam), NEP (#ab216341, 1:1000, Abcam), Synapsin I (#ab64581, 1:1000, Abcam), Synapsin II (#ab76494, 1:1000, Abcam), NR2A (#ab124913, 1:2000, Abcam), PSD95 (#ab18258, 1:1000, Abcam), Synaptophysin (#ab32127, 1:1000, Abcam), IDE (#ab133561, 1:1000, Abcam), Drebin (#ab178408, 1:1000, Abcam) and Tau-5 (#ab80579, 1:2000, Abcam) overnight at 4°C. After washing 3 times, the membranes were incubated with the respective HRP-conjugated secondary antibody. ECL Western blotting Detection Reagents (Fdbio science, Hangzhou, China) were used to perform Chemiluminescence detection. Quantitative analysis of protein bands was conducted by the Carestream system (Carestream Health, Inc, USA).
CGNs were prepared from the 8-day-old Sprague–Dawley rats as described in our previous publication (Li et al., 2005). Briefly, animals were anesthetized and sacrificed, and their cerebella were collected. Then, the freshly collected cerebella were rinsed in cold Kreb’s buffer-BSA and digested with 0.025 % trypsin incubated in a 37°C for 15 min. The reaction was stopped, and the single cell suspension was obtained through pipetting up and down the sedimentary tissue. CGNs were seeded in basal modified Eagle’s medium (ThermoFisher Scientific, Waltham, MA, USA) supplemented with 10 % fetal bovine serum, 25 mM KCl, 2 mM glutamine and 100 units/mL penicillin/streptomycin at a density of 1.5×10^6 cells/mL. Cytosine arabinoside (10 μM) was added to inhibit the growth of non-neuronal cells at 24 h after seeding. All experiments were carried out after 8 days in vitro. […]

[2] = tested on: primary hippocampal neurons; assay: intracellular Ca2+ by Fluo-4 confocal microscopy in primary hippocampal neurons; type: cell-based, rat; conditions: glutamate 100 µM
Procedure: Rat hippocampal neurons were obtained from 18-day-old Sprague-Dawley rat embryos as previously described with modifications (Subramaniam et al., 2005). The hippocampi were obtained and dissected on ice. Then, the hippocampi were digested with 0.25 % trypsin at 37°C for 15 min. The single neurons were mechanically dissociated by using a Pasteur pipette. The neurons were plated at a density of 2×10^5 cells/mL on 35-mm culture dishes, which were pre-coated with poly-L-lysine (10 μg/mL), in neurobasal eagle’s medium containing 10 % fetal bovine serum, 0.5 mM glutamine, 100 units/mL of penicillin, 100 μg/mL of streptomycin. […]
A confocal laser scanning microscope was used to evaluate relative changes in intracellular calcium concentrations [Ca^2+]i by monitoring Fluo-4 fluorescence after intracellular cleavage of superfused Fluo-4 acetoxymethylester (1 μM, with excitation at 488 nm and emission at 510 nm) (Bkaily, Al-Khoury, Simon, & Jacques, 2017). […] The fluorescence images were obtained by Leica TCS SPE Confocal Microscope and analyzed using the LAS AF software (Leica Microsystems Co., Wetzlar and Mannheim, Germany). The data were obtained by evaluating the fluorescence (F) from selected areas within a cell, following subtraction of background fluorescence, and division by the fluorescence intensity before drug application (F0), expressed as F/F0. […]

Structure (SMILES) | upregulation of ERK1/2 phosphorylation induced by glutamate ([1]; memantine 10 µM) | intracellular Ca2+ influx caused by glutamate ([2]; memantine 10 µM) | expression of both p‐Akt and p‐GSK3β with the challenge of glutamate ([1]; MN‐08 30 µM pre‐treatment) | upregulation of ERK1/2 phosphorylation induced by glutamate ([1]; MN‐08 30 µM) | Bcl‐2 downregulation caused by glutamate ([1]; pre‐treatment MN‐08 30 µM) | intracellular Ca2+ influx caused by glutamate ([2]; MN‐08 30 µM)
CC12CC3CC(C)(C1)CC(N)(C3)C2 [memantine, 1‐amino‐3,5‐dimethyladamantane] | significantly inhibited | inhibited |  |  |  | 
CCC12CC3CC(N)(C1)CC(CO[N+](=O)[O-])(C3)C2 (stereo not drawn) [MN‐08] |  |  | reversed | significantly inhibited | significantly reversed | inhibited
